In brackets after ≈: the same amount, converted by molar mass. Like-named read-outs stand apart in the source and are kept apart here.
How the values were obtained:
[1] = test system: Enterococcus faecalis (ATCC # 29212); test: Broth microdilution MIC; type: cell-based; conditions: for MIC: Enterococcus faecalis, ATCC29212
Outline: (§1)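 Run in Mueller Hinton Broth and Trypticase Soy Broth, with inoculum at 0.5 McFarland diluted 1:10 and compounds in DMSO at 25 to 0.78 ug/ml (final well concentrations not given) in duplicate. OD600 read after 24 h at 37° C; MIC derived by linear regression.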

[2] = test system: Staphylococcus aureus (ATCC # 29213); test: Broth microdilution MIC; type: cell-based; conditions: for MIC: Staphylococcus aureus, ATCC29213
Outline: as §1

[3] = test system: Pseudomonas aeruginosa (ATCC # 27853); test: Broth microdilution MIC; type: cell-based; conditions: for PSAE/MH(MIC): Mueller Hinton Broth; for PSAE/Tsoy(MIC): Trypticase Soy Broth
Outline: as §1

[4] = test system: Escherichia coli (ATCC # 25922); test: Broth microdilution MIC; type: cell-based; conditions: for MIC: Escherichia coli, ATCC25922
Outline: as §1

[5] = test system: MCF-7 human breast cancer cells; test: Crystal violet cell growth assay; type: cell-based; conditions: MCF7, MCF-7, 72 hours, read-out: Cr. Violet(IC50)
Outline: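 MCF-7 cells (5×10^4/well) in DMEM + 10% FBS, cultured overnight at 37° C, then given compounds in DMSO at 50, 40, 30, 20 and 10 μg/ml in triplicate for 72 h. Fixed cells stained with crystal violet, solubilised in SDS, OD490 read as growth; IC50 computed.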

[6] = Weight loss screen in Balb/C mice; type: in vivo; conditions: for change in vivo at 60 mg/kg / change in vivo at 30 mg/kg: Mus musculus, read-out: Weight Loss; for change in vivo at 60 mg/kg: ip; for Deaths in weight loss screen: 60 mg/kg
Procedure: Balb/C mice (Jackson Labs) are utilized for the initial weight loss screening. Animals are housed in temperature and 12 hour day/night cycle rooms and fed mouse chow and water ad lib. Three mice are utilized for each compound tested with vehicle controls in triplicate per experiment. For the experiments, mice are housed separately for each compound tested three mice to a cage. […] Mice are observed and weighed daily; average weights and standard errors are computed with Excel (Microsoft). The experiment continues until treated animals reach their pretreatment weights. […]

[7] = test system: MCF-7 human breast cancer cells; test: [14C]acetate incorporation into total lipids; type: cell-based; conditions: for IC50: Homo sapiens, MCF7, [14C]acetate incorporation into lipids; for 14C(IC50): [14C]acetate incorporation into lipids
Outline: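 MCF-7 cells plated at 5×10^4 cells/well and exposed to compound for 4 h, then pulsed with 0.25 μCi [14C]acetate for 2 h. Lipids extracted with chloroform:methanol and counted by scintillation in triplicate. IC50 is the concentration giving 50% reduction in incorporation versus vehicle controls.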

[8] = Mueller Hinton Broth, read-out: SA/MH(MIC)
[9] = Trypticase Soy Broth, read-out: SA/Tsoy(MIC)
[10] = 24 h, 60 mg/kg intraperitoneally, day1
[11] = Mueller Hinton Broth, read-out: EF/MH(MIC)
[12] = Trypticase Soy Broth, read-out: EF/Tsoy(MIC)
[13] = Trypticase Soy Broth, read-out: Ecoli/Tsoy(MIC)
[14] = 48 h, 60 mg/kg intraperitoneally, day2
[15] = Mueller Hinton Broth, read-out: Ecoli/MH(MIC)

| Compound | MIC [2, 8] | MIC [2, 9] | PSAE/MH(MIC) [3] | PSAE/Tsoy(MIC) [3] | Ecoli/MH(MIC) ([4]; Mueller Hinton Broth) | Ecoli/Tsoy(MIC) ([4]; Trypticase Soy Broth) | IC50 [5] | change in vivo at 60 mg/kg [6, 10] | IC50 [7] | MIC [1, 11] | MIC [1, 12] | MIC [4, 13] | change in vivo at 60 mg/kg [6, 14] | also measured |
| --- | --- | --- | --- | --- | --- | --- | --- | --- | --- | --- | --- | --- | --- | --- |
| C/C=C/C(C)=C/C1(C)SC(=O)C=C1O (centres unmarked) | 52 µg/mL (≈ 247 µM) | 87 µg/mL (≈ 414 µM) | Neg | Neg | Neg | Neg | > 50 µg/mL | 4.1% | 17.3 µg/mL (≈ 82.3 µM) | – | – | – | – | EF/MH(MIC) ([1]; Mueller Hinton Broth): Neg; EF/Tsoy(MIC) ([1]; Trypticase Soy Broth): Neg |
| CCCC/C=C/C=C/C1(C)SC(=O)C=C1O (centres unmarked) | – | 55 µg/mL (≈ 231 µM) | Neg | Neg | Neg | – | 43.9 ± 4.8 µg/mL (≈ 184 µM) | – | 25.7 µg/mL (≈ 108 µM) | 78 µg/mL (≈ 327 µM) | 42 µg/mL (≈ 176 µM) | 263 µg/mL (≈ 1100 µM) | – | SA/MH(MIC) ([2]; Mueller Hinton Broth): Neg; change in vivo at 60 mg/kg ([6]; 144 h): 11% |
| CCCCCCCCC1(C)SC(=O)C=C1O (centres unmarked) | – | 47 µg/mL (≈ 194 µM) | Neg | Neg | Neg | – | 28.7 µg/mL (≈ 118 µM) | – | 12.6 ± 4.4 µg/mL (≈ 52 µM) | 16.9 µg/mL (≈ 69.7 µM) | 3.3 µg/mL (≈ 13.6 µM) | 278 µg/mL (≈ 1150 µM) | – | SA/MH(MIC) ([2]; Mueller Hinton Broth): Neg; change in vivo at 30 mg/kg ([6]; 72 h): 4.8% |
| CCCCCCCCC1(C)SC(=O)C(C)=C1O (centres unmarked) | 45 ± 2 µg/mL (≈ 175 µM) | 23.5 ± 0.4 µg/mL (≈ 91.6 µM) | Neg | Neg | Neg | – | 29.4 ± 4.3 µg/mL (≈ 115 µM) | 0% | 16.5 ± 5.7 µg/mL (≈ 64.3 µM) | 44 µg/mL (≈ 172 µM) | 105 µg/mL (≈ 409 µM) | 290 µg/mL (≈ 1130 µM) | – | change in vivo at 30 mg/kg ([6]; 24 h): 1% |
| CC1(Cc2ccccc2)SC(=O)C=C1O (centres unmarked) | 57 µg/mL (≈ 259 µM) | 67 µg/mL (≈ 304 µM) | Neg | Neg | Neg | – | > 50 µg/mL | – | – | 128 µg/mL (≈ 581 µM) | – | 299 µg/mL (≈ 1360 µM) | 1.6% | EF/Tsoy(MIC) ([1]; Trypticase Soy Broth): Neg; 14C(IC50) [7]: Neg |
| C#CCOC1CC(=O)S[C@]1(C)CCCCCC (mixture of isomers) | 53 µg/mL | 80 µg/mL | Neg | Neg | – | Neg | 12.1 ± 1.5 µg/mL | – | 21.9 ± 1.5 µg/mL | – | 83 µg/mL | – | – | EF/MH(MIC) ([1]; Mueller Hinton Broth): Neg; MIC [4, 15]: 203 µg/mL; Deaths in weight loss screen ([6]; day2, three mice): 3 of 3 dead; change in vivo at 30 mg/kg ([6]; 72 h, 30 mg/kg, day3): 5.9% |
| C=CCOC1=CC(=O)S[C@]1(C)CCCCCC (racemic) | 73 µg/mL (≈ 287 µM) | 54 µg/mL (≈ 212 µM) | Neg | Neg | Neg | Neg | 8.1 µg/mL (≈ 31.8 µM) | – | – | – | 158 µg/mL (≈ 621 µM) | – | – | EF/MH(MIC) ([1]; Mueller Hinton Broth): Neg; Deaths in weight loss screen ([6]; day2, three mice): 2 of 3 dead; change in vivo at 30 mg/kg ([6]; 48 h, 30 mg/kg, day2): 8.8%; 14C(IC50) [7]: Neg |
| C=CCOC1=CC(=O)S[C@]1(C)CCCCCCCC (racemic) | 127 µg/mL (≈ 450 µM) | 85 µg/mL (≈ 301 µM) | Neg | Neg | Neg | Neg | 11 µg/mL (≈ 38.9 µM) | – | – | 238 µg/mL (≈ 843 µM) | 238 µg/mL (≈ 843 µM) | – | – | Deaths in weight loss screen ([6]; day3, three mice): 3 of 3 dead; change in vivo at 30 mg/kg ([6]; 48 h, 30 mg/kg, day2): 4.7%; 14C(IC50) [7]: Neg |
| CCCCCCCC[C@@]1(C)SC(=O)C=C1OCC(=O)OCC (racemic) | – | 83 µg/mL (≈ 253 µM) | Neg | Neg | Neg | Neg | 17.9 ± 5.1 µg/mL (≈ 54.5 µM) | 1.8% | 10.8 ± 5.8 µg/mL (≈ 32.9 µM) | 86 µg/mL (≈ 262 µM) | – | – | – | EF/Tsoy(MIC) ([1]; Trypticase Soy Broth): Neg; SA/MH(MIC) ([2]; Mueller Hinton Broth): Neg; change in vivo at 30 mg/kg ([6]; 24 h): 4.5% |
| CCCCCC[C@@]1(C)SC(=O)C=C1OCC(=O)NCC(=O)O (racemic) | 78 µg/mL (≈ 237 µM) | 225 µg/mL (≈ 683 µM) | Neg | Neg | Neg | – | > 50 µg/mL | – | 6.6 µg/mL (≈ 20 µM) | 121 µg/mL (≈ 367 µM) | 173 µg/mL (≈ 525 µM) | 235 µg/mL (≈ 713 µM) | 3.5% | – |
| CCCCCCCC[C@@]1(C)SC(=O)C=C1OC(=O)OC (racemic) | 64 µg/mL (≈ 213 µM) | 41 µg/mL (≈ 136 µM) | Neg | Neg | – | Neg | 41.4 ± 14.1 µg/mL (≈ 138 µM) | 7.65% | 10.7 µg/mL (≈ 35.6 µM) | 73 µg/mL (≈ 243 µM) | 65 µg/mL (≈ 216 µM) | – | – | MIC [4, 15]: 296 µg/mL (≈ 985 µM) |
| C=CCOC(=O)OC1=CC(=O)S[C@]1(C)CCCCCCCC (racemic) | 57 µg/mL (≈ 175 µM) | 28 µg/mL (≈ 85.8 µM) | Neg | Neg | – | – | 35.8 µg/mL (≈ 110 µM) | – | 14.2 µg/mL (≈ 43.5 µM) | 79 µg/mL (≈ 242 µM) | 75 µg/mL (≈ 230 µM) | 87 µg/mL (≈ 266 µM) | 6.2% | MIC [4, 15]: 82 µg/mL (≈ 251 µM); change in vivo at 30 mg/kg ([6]; 48 h): 1% |
| CCCCCCCC[C@@]1(C)SC(=O)C(C(C)=O)=C1O (racemic) | 3.4 µg/mL (≈ 12 µM) | 1.4 µg/mL (≈ 4.92 µM) | Neg | Neg | Neg | – | 8.4 µg/mL (≈ 29.5 µM) | – | 12.1 ± 0.1 µg/mL (≈ 42.5 µM) | 2.5 µg/mL (≈ 8.79 µM) | 2 µg/mL (≈ 7.03 µM) | 177 µg/mL (≈ 622 µM) | 8.2% | – |
